We go through one compound from patent US5932541A, “Method of adjusting the circadian rhythm of a mammal” (Gruenenthal GmbH, priority 1998, dated 1999).

For one data set, the system named is Sprague-Dawley rats. The experiment in a line: Subacute repeated-dose intravenous toxicity study with four-week recovery.
Data set [1] has as its system circadian rhythm of hamster wheel running activity. The experiment in a line: Phase shift of the circadian rhythm of hamster wheel running activity after intraperitoneal injection. It counts as in vivo, hamster (Mesocricetus auratus). The procedure: A preliminary study was conducted to determine whether peripherally administered 6-methyl-5-oxo-3-thiomorpholinyl-carbonyl-L-histidyl-L-prolinamide (Montirelin) is capable of phase shifting the circadian rhythm of hamster wheel running activity. Twenty-four male hamsters [Mesocricetus auratus; 8-12 weeks of age; Charles River LAK:LVG(SYR)] were housed individually in cages equipped with running wheels, and food and water freely available. Animals were maintained in light-tight, ventilated cabinets (six cages per cabinet) in which the lighting schedule could be controlled. Each animal's wheel running activity was monitored continuously throughout each experiment using a data acquisition software kit (Chronobiology, Stanford, Calif.).
(§1) Animals were maintained initially in a 14:10 hour light:dark cycle for 7-10 days, then transferred to constant dim red lighting (RR) conditions for the remainder of the experiment (40-60 days). After free-running for 7 days in dim red lighting, animals either received Montirelin or vehicle intraperitoneally. The daily onset of wheel-running activity was defined as circadian time 12 (CT 12), and this time was used as a reference point in determining appropriate circadian injection times. The test animals were divided into eight groups of three animals each, and intraperitoneal injections of the active compound at dosage levels of 10 or 20 mg/kg or of the vehicle alone were administered to respective test groups at circadian time 3 (CT 3) or circadian time 16 (CT 16). The order of injections and time points was randomized. An additional 4 animals maintained in similar lighting conditions were visually observed for two hours post-injection of Montirelin (10 or 20 mg/kg) to determine any overt behavioral effects exerted by this compound. A total of 9 injections were made for each of the eight treatment groups.
Phase shifts in the circadian activity rhythm were determined by measuring the phase difference between eye-fitted lines connecting the onset of activity for a period of ten days before and ten days after an experimental manipulation.

A further data set deals with hamsters. The experiment in a line: Visual observation of overt behavior for two hours post-injection. Format: in vivo, hamster (Mesocricetus auratus). The procedure:
as §1

The mark [2] stands for this setting: both sexes, 50 mg/kg, within the range of normal physiological variations.
The mark [3] stands for this setting: 20 mg/kg i.p., at both CT 3 and CT 16, individual hamsters.

Description for Sprague-Dawley rats: Eight nine SPF Slc:SD rats of both sexes (age: four weeks, body weight: 70.0-81.6 g) were purchased from Shizuoka Agriculture Cooperative Association for Laboratory Animals. During a one-week quarantine/acclimation period, the animals were measured for body weight and observed for any general symptoms, and healthy animals showing normal growth were selected and used in the experiment at the age of five weeks.
Males and females were used in five groups (including the control group) of 10 animals/sex, and additional 10 animals/sex ere added to the control, 0.5 mg/kg and 50 mg/kg groups to investigate the reversibility of the toxic effect of the test substance. All these animals were randomized to each group by weight stratification so that the differences in initial mean body weight were within 2% between groups.
This study also included the vehicle control group.
Dosing solutions were prepared by dissolving a weighed amount of the test substance in physiological saline at a concentration of 1 W/V % using a volumetric flask. Lower dosing solutions were obtained by successive 10-fold dilution of the initial solution. The respective dosing solution was repeatedly administered intravenously once daily for 35 days into the tail vein at a rate of 0.2 ml/10 sec. using a 1/4 syringe for injection. The treatment was given at a constant volume of 0.5 ml/100 g body weight in all dose groups, and the control group was treated with physiological saline at the same volume in the same manner.
Clinical signs in all animals were observed daily between two and four hours after dosing according to Irwin's method of comprehensive observational assessment, and the type, severity, onset time and disappearance time of toxic symptoms were recorded. During the recovery period, the clinical observation was performed once daily in the morning in the same manner. The body weight, food consumption and water consumption were measured in all animals three times weekly in the morning throughout the treatment and recovery periods and recorded.

As for `CC1SCC(C(=O)N[C@@H](Cc2c[nH]cn2)C(=O)N2CCC[C@H]2C(N)=O)NC1=O` (stereo partly drawn) [Montirelin, 6-methyl-5-oxo-3-thiomorpholinylcarbonyl-L-histidyl-L-prolinamide], the “clinical signs: polyuria” value in the data set on Sprague-Dawley rats (5 mg/kg or higher groups, almost all males and females, peak about one hour after dosing day 0-3, disappearing by day 4-28) is “transient polyuria”. Besides, in the data set on Sprague-Dawley rats (50 mg/kg group, both sexes, from day 0, disappearing by day 6 in males, day 4 in females), the “clinical signs: systemic tremor” value is recorded as “systemic tremor was observed transiently during the injection”. Besides, in the data set on Sprague-Dawley rats (all treatment groups), the blood biochemical parameters result was “No treatment-related abnormalities”; the “gross changes at autopsy” value is “no treatment-related grossly abnormal changes”; the “histopathology of other organs (light microscopy); liver and kidney (electron microscopy)” value is “no remarkable changes”. The “histopathology: hypertrophy of serous cells in the submaxillary gland” value in the data set with Sprague-Dawley rats (both sexes of all treatment groups) was “showed dose-dependency”. Moreover, the water consumption entry with Sprague-Dawley rats (both sexes receiving 5 mg/kg or above, day 2-3 until about week 4) is recorded as “increased”. In the data set with Sprague-Dawley rats (setting [2]), the “red blood cell count, hemoglobin and hematocrit” value is “increasing tendency”; the “total white blood cell count” value is given as “decreasing tendency”. Further, the “food consumption and body weight, females” value in the data set on Sprague-Dawley rats (females) is “unremarkable”. The “reversibility of observed changes” value with Sprague-Dawley rats (four-week recovery after discontinuing administration) is listed as “All observed changes were reversed”. Also, the “urinary findings (urine volume)” value with Sprague-Dawley rats (males and females receiving 5 mg/kg or above, week 2 and 5 of treatment) is reported as “unremarkable except for an increase in urine volume”. Moreover, in the data set with Sprague-Dawley rats (males, particularly 0.5, 5 and 50 mg/kg), the “body weight gain, males” value is on record as “suppressed”. Besides, the death result with Sprague-Dawley rats (rats, i.v. once daily 35 days, 0.05-50 mg/kg/day, administration and recovery periods) is “no death occurred”. For the same compound, the “food consumption, males” value in the data set with Sprague-Dawley rats (treated males compared with control males) is listed as “tended to decrease food consumption”. The “Effects on the Phase of Wheel Running Activity, Group Averages” value (“Effects on the Phase” below) in data set [1] (10 mg/kg i.p. at CT 3) amounted to 4.3 ± 2.2 min. Further, in data set [1] (10 mg/kg i.p. at CT 16), the “Effects on the Phase” value was 3.5 ± 2.3 min. In data set [1] (20 mg/kg i.p. at CT 3), the “Effects on the Phase” value is 5.5 ± 2.4 min. Moreover, the “Effects on the Phase” value in data set [1] (20 mg/kg i.p. at CT 16) was found to be 3.1 ± 2.0 min. In addition, in data set [1] (setting [3]), the “phase advances in individual hamsters” value is listed as “≈ 16 min” and the “phase delays in individual hamsters” value is on record as “≈ 10 min”. Also, in the data set with hamsters (10 mg/kg i.p. at CTs 3 and 16), the “overt behavior versus vehicle” value was “no differences in overt behavior”. Further, the “overt behavior versus vehicle” value in the data set with hamsters (20 mg/kg i.p. at both CT 3 and CT 16) is “clear differences in overt behaviors”.
